Measured values: patent US20050009840A1 (SUGEN, INC., priority 2003, published 2005)

Target: T1, Met kinase domain (GST fusion protein) (Homo sapiens, UniProt P08581)
T1 construct: Purified GST fusion protein containing the Met kinase domain
Assay: Met transphosphorylation assay (ELISA, poly(glu-tyr) substrate);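 further: Cell-free ELISA with plate-bound poly(Glu:Tyr 4:1) phosphorylated by GST-fused Met kinase domain plus ATP and Mn2+, phosphotyrosine detected by anti-phosphotyrosine antibody with HRP and ABTS read-out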
Type: biochemical
Conditions: read-out: Met IC50
Description: General procedure is as follows: a compound is introduced to cells expressing the test kinase, either naturally or recombinantly, for a selected period of time after which, if the test kinase is a receptor, a ligand known to activate the receptor is added. The cells are lysed and the lysate is transferred to the wells of an ELISA plate previously coated with a specific antibody recognizing the substrate of the enzymatic phosphorylation reaction. Non-substrate components of the cell lysate are washed away and the amount of phosphorylation on the substrate is detected with an antibody specifically recognizing phosphotyrosine compared with control cells that were not contacted with a test compound.
Met Transphosphorylation Assay
This assay is used to measure phosphotyrosine levels on a poly(glutamic acid:tyrosine, 4:1) substrate as a means for identifying agonists/antagonists of met transphosphorylation of the substrate.
PBS, Gibco Catalog # 450-1300EB • 4. 50 mM HEPES • 5. […] Purified GST fusion protein containing the Met kinase domain, SUGEN, Inc. • 7. TBST Buffer. • 8. 10% aqueous (MilliQue H2O) DMSO. • 9. […] 2× Kinase Dilution Buffer: for 100 mL, mix 10 mL 1M HEPESat pH 7.5 with 0.4 mL 5% BSA/PBS, 0.2 mL 0.1 M sodium orthovanadate and 1 mL 5M sodium chloride in 88.4 mL dH2O. • 11. 4× ATP Reaction Mixture: for 10 mL, mix 0.4 mL 1 M manganese chloride and 0.02 mL 0.1 M ATP in 9.56 mL dH2O. • 12. 4× Negative Controls Mixture: for 10 mL, mix 0.4 mL 1 M manganese chloride in 9.6 mL dH2O. • 13. […] 500 mM EDTA. • 15. Antibody Dilution Buffer: for 100 mL, mix 10 mL 5% BSA/PBS, 0.5 mL 5% Carnation® Instant Milk in PBS and 0.1 mL 0.1 M sodium orthovanadate in 88.4 mL TBST. • 16. Rabbit polyclonal antophosphotyrosine antibody, SUGEN, Inc. • 17. Goat anti-rabbit horseradish peroxidase conjugated antibody, Biosource, Inc. • 18. ABTS Solution: for 1 L, mix 19.21 g citric acid, 35.49 g Na2HPO4 and 500 mg ABTS with sufficient dH2O to make 1 L. • 19. ABTS/H2O2: mix 15 mL ABST solution with 2μL H2O2 five minutes before use. • 20. 0.2 M HCl Procedure: • 1. Coat ELISA plates with 2 μg Poly(Glu-Tyr) in 100 μL PBS, hold-overnight at 4° C. • 2. Block plate with 150 μL of 5% BSA/PBS for 60 min. • 3. Wash plate twice with PBS then once with 50 mM Hepes buffer pH 7.4. • 4. Add 50 μl of the diluted kinase to all wells. (Purified kinase is diluted with Kinase Dilution Buffer. Final concentration should be 10 ng/well.) • 5. Add 25 μL of the test compound (in 4% DMSO) or DMSO alone (4% in dH2O) for controls to plate. • 6. Incubate the kinase/compound mixture for 15 minutes. • 7. Add 25 μL of 40 mM MnCl2 to the negative control wells. • 8. Add 25 μL ATP/MnCl2 mixture to the all other wells (except the negative controls). Incubate for 5 min. • 9. Add 25 μL 500 mM EDTA to stop reaction. • 10. Wash plate 3× with TBST. • 11. Add 100 μL rabbit polyclonal anti-Ptyr diluted 1:10,000 in Antibody Dilution Buffer to each well. Incubate, with shaking, at room temperature for one hour. • 12. Wash plate 3× with TBST. • 13. […] Add 100 μL per well and incubate at room temperature, with shaking, for one hour. • 14. Wash plate 1× with PBS. • 15. Add 100 μl of ABTS/H2O2 solution to each well. • 16. If necessary, stop the development reaction with the addition of 100 μl of 0.2M HCl per well. • 17.

T1 sequence (P08581 1078-1345 limits assumed): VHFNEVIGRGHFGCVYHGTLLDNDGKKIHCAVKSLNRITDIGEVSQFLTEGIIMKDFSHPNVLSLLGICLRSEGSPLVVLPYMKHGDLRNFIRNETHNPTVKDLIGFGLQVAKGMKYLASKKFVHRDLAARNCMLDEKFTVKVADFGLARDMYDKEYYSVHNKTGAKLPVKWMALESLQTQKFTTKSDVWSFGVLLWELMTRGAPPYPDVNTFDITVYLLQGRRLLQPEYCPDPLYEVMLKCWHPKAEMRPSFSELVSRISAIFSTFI

First: CC(Oc1nc(-c2cccc(C(=O)N3CCN(C)CC3)n2)cnc1N)c1c(Cl)ccc(F)c1Cl (centres unmarked) [II-204, (6-{5-Amino-6-[1-(2,6-dichloro-3-fluoro-phenyl)-ethoxy]-pyrazin-2-yl}-pyridin-2-yl)-(4-methyl-piperazin-1-yl)-methanone]
Second: CC(Oc1nc(-c2ccnc(C(=O)N3CCN(C)CC3)c2)cnc1N)c1c(Cl)ccc(F)c1Cl (centres unmarked) [II-206, (4-{5-Amino-6-[1-(2,6-dichloro-3-fluoro-phenyl)-ethoxy]-pyrazin-2-yl}-pyridin-2-yl)-(4-methyl-piperazin-1-yl)-methanone]
The IC50 of the first is 2.2-fold higher: 220 nM for the first, 100 nM for the second. The second is the more potent here.

Going from `CC(Oc1nc(-c2cncc(C(=O)N3CCN(C)CC3)c2)cnc1N)c1c(Cl)ccc(F)c1Cl` (centres unmarked) [II-205, (5-{5-Amino-6-[1-(2,6-dichloro-3-fluoro-phenyl)-ethoxy]-pyrazin-2-yl}-pyridin-3-yl)-(4-methyl-piperazin-1-yl)-methanone] to `CC(Oc1nc(-c2cncc(C(=O)NCCN3CCOCC3)c2)cnc1N)c1c(Cl)ccc(F)c1Cl` (centres unmarked) [II-208, 5-{5-Amino-6-[1-(2,6-dichloro-3-fluoro-phenyl)-ethoxy]-pyrazin-2-yl}-N-(2-morpholin-4-yl-ethyl)-nicotinamide], the IC50 falls from 100 nM to 38 nM (2.6-fold).

In the case of `CC(Oc1nc(-c2cncc(C(=O)NCCCN3CCOCC3)c2)cnc1N)c1c(Cl)ccc(F)c1Cl` (centres unmarked) [II-210, 5-{5-Amino-6-[1-(2,6-dichloro-3-fluoro-phenyl)-ethoxy]-pyrazin-2-yl}-N-(3-morpholin-4-yl-propyl)-nicotinamide], the IC50 is reported as 22 nM.
